Test results as given in ChEMBL document CHEMBL1687706, “Inhibition of human immunodeficiency virus type 1 replication in human cells by Debio-025, a novel cyclophilin binding agent” (Antimicrob Agents Chemother, 2008).
The source made the active and inactive calls. The calls are words filed in the database; no cut-off is given here.

Key:
[1] = Cytotoxicity against MDCK cells; assay type: cell-based, Canis lupus familiaris; conditions: dog, read-out: TC50 (the source's name)
[2] = tested on: Human immunodeficiency virus 1; assay: microbe, parasite or virus in culture; conditions: Human immunodeficiency virus 1, SF2
[3] = tested on: Human papillomavirus type 16; assay: Antiviral activity against HPV-16 infected in Caski cells assessed as inhibition of viral replication after 3 days; assay type: functional, organism-based, Human papillomavirus 16
[4] = tested on: Human immunodeficiency virus 1; assay: Antiviral activity against HIV-1 NL4-3 infected in human TZB cells assessed as inhibition of accumulation of early viral transcripts at 0.5 to 2.5 uM by RT-PCR; assay type: functional, organism-based
Human alphaherpesvirus 1 [5] = assay: Antiviral activity against Herpes simplex virus 1 F infected in human embryonic lung cells assessed as inhibition of viral replication; assay type: functional, organism-based; conditions: Human alphaherpesvirus 1, strain F
[6] = tested on: Human immunodeficiency virus 1; assay: Antiviral activity against HIV-1 NL4-3 infected in human TZB cells assessed as inhibition of accumulation of late viral transcripts at 0.5 to 2.5 uM by RT-PCR; assay type: functional, organism-based
Human alphaherpesvirus 2 [7] = assay: Antiviral activity against Herpes simplex virus 2 Lyons infected in human embryonic lung cells assessed as inhibition of viral replication; assay type: functional, organism-based; conditions: Human alphaherpesvirus 2, Lyons
Rattus norvegicus [8] = assay: Immunosuppressive activity in Sprague-Dawley rat […] model assessed as percent T lymphocytes at 25 mg/kg, po administered once daily for 28 days by flow cytometry; assay type: functional
[9] = tested on: Human immunodeficiency virus 1; assay: Antiviral activity against APV, ATV, IDV, LPV, NFV, RTV, SQV, AZT, ddI, 3TC, d4T-resistant HIV-1 MDR1385 infected in human PBMC assessed as inhibition of viral replication by ELISA; assay type: functional, organism-based; conditions: Human immunodeficiency virus 1, MDR1385
Human alphaherpesvirus 1 [10] = assay: Antiviral activity against Herpes simplex virus 1 KOS infected in human embryonic lung cells assessed as inhibition of viral replication; assay type: functional, organism-based; conditions: Human alphaherpesvirus 1, KOS
[11] = tested on: Human immunodeficiency virus 1; assay: Antiviral activity against HIV1 subtype B WEJO infected in human PBMC assessed as inhibition of viral replication by ELISA; assay type: functional, organism-based; conditions: Human immunodeficiency virus 1, subtype B WEJO
[12] = tested on: Human immunodeficiency virus 1; assay: Antiviral activity against HIV1 subtype B 92BR014 infected in human PBMC assessed as inhibition of viral replication by ELISA; assay type: functional, organism-based; conditions: Human immunodeficiency virus 1, subtype B 92BR014
Influenza A virus = assay: Antiviral activity against Influenza A virus H3N2 infected in MDCK cells assessed as inhibition of viral replication; assay type: functional, organism-based
[13] = tested on: Human immunodeficiency virus 1; assay: Antiviral activity against HIV1 subtype EA CMU02 infected in human PBMC assessed as inhibition of viral replication by ELISA; assay type: functional, organism-based; conditions: Human immunodeficiency virus 1, subtype EA CMU02
[14] = tested on: Human immunodeficiency virus 2; assay: Antiviral activity against HIV-2 isolate CDC310342 infected in human PBMC assessed as inhibition of viral replication; assay type: functional, organism-based; conditions: Human immunodeficiency virus 2, isolate CDC310342
Yellow fever virus = assay: Antiviral activity against Yellow fever virus 17D infected in african green monkey Vero cells assessed as inhibition of viral replication; assay type: functional, cell-based
[15] = tested on: Human immunodeficiency virus 1; assay: Antiviral activity against HIV-1 NL4-3 cells infected in human TZB cells assessed as degradation of cDNA at 0.5 to 2.5 uM after 6 hrs postinfection by RT-PCR; assay type: functional, organism-based
[16] = Cytotoxicity against human HepAD38 cells; assay type: cell-based; conditions: read-out: TC50 (the source's name)
[17] = tested on: Human immunodeficiency virus 1; assay: Antiviral activity against HIV1 subtype B SLKA infected in human PBMC assessed as inhibition of viral replication by ELISA; assay type: functional, organism-based; conditions: Human immunodeficiency virus 1, subtype B SLKA
[18] = tested on: Human papillomavirus type 16; assay: Antiviral activity against HPV-16 infected in Caski cells assessed as inhibition of viral replication after 7 days; assay type: functional, Human papillomavirus 16
Rattus norvegicus [19] = assay: Immunosuppressive activity in Sprague-Dawley rat KHL model assessed as percent cytotoxic T cells at 50 mg/kg, po administered once daily for 28 days by flow cytometry; assay type: functional, T-cell
[20] = Cytotoxicity against human HeLa cells; assay type: cell-based; conditions: read-out: TC50 (the source's name)
[21] = tested on: Human immunodeficiency virus 1; assay: Antiviral activity against HIV1 subtype B NL4-3 infected in human PBMC assessed as inhibition of viral replication by ELISA; assay type: functional, organism-based; conditions: Human immunodeficiency virus 1, subtype B NL4-3
Human respirovirus 3 = assay: Antiviral activity against Parainfluenza 3 infected in african green monkey Vero cells assessed as inhibition of viral replication; assay type: functional, organism-based; conditions: Human respirovirus 3, Vero
Coxsackievirus = assay: Antiviral activity against Coxsackie B3 infected in african green monkey Vero cells assessed as inhibition of viral replication; assay type: functional, organism-based
Human alphaherpesvirus 2 [22] = assay: Antiviral activity against Herpes simplex virus 2 196 infected in human embryonic lung cells assessed as inhibition of viral replication; assay type: functional, organism-based; conditions: Human alphaherpesvirus 2, 196, lung
[23] = tested on: Human immunodeficiency virus 1; assay: Antiviral activity against HIV1 subtype B Ba-L infected in human PBMC assessed as inhibition of viral replication by ELISA; assay type: functional, organism-based; conditions: Human immunodeficiency virus 1, subtype B Ba-L
Human betaherpesvirus 5 [24] = assay: Antiviral activity against Human cytomegalovirus Davis infected in human embryonic lung cells assessed as reduction in viral yield; assay type: functional, organism-based; conditions: Human betaherpesvirus 5, Davis
[25] = Antiviral activity against Simian immunodeficiency virus-mac 251 infected in human PBMC assessed as inhibition of viral replication by RT activity; assay type: functional
[26] = tested on: Human immunodeficiency virus 2; assay: Antiviral activity against HIV-2 isolate CDC310319 infected in human PBMC assessed as inhibition of viral replication; assay type: functional, organism-based; conditions: Human immunodeficiency virus 2, isolate CDC310319
[27] = tested on: Human immunodeficiency virus 1; assay: Antiviral activity against HIV1 subtype D 92UG046 infected in human PBMC assessed as inhibition of viral replication by ELISA; assay type: functional, organism-based; conditions: Human immunodeficiency virus 1, subtype D 92UG046
[28] = Cytotoxicity against human embryonic lung cells; assay type: cell-based; conditions: read-out: TC50 (the source's name)
SARS-CoV = assay: Antiviral activity against SARS coronavirus infected in african green monkey Vero cells assessed as inhibition of viral replication; assay type: functional, organism-based; conditions: Severe acute respiratory syndrome-related coronavirus
[29] = Antiviral activity against HPV-18 infected in human HeLa cells assessed as inhibition of viral replication after 3 days; assay type: functional, cell-based; conditions: human papillomavirus 18, HeLa, 72 h; read-out: TC50 (the source's name)
[30] = tested on: Bovine viral diarrhea virus 1; assay: Antiviral activity against BVDV infected in […] cells assessed as inhibition of viral replication; assay type: functional, organism-based; conditions: Bovine viral diarrhea virus isolates and strains
Rattus norvegicus [31] = assay: Immunosuppressive activity in Sprague-Dawley rat […] model assessed as percent T lymphocytes at 50 mg/kg, po administered once daily for 28 days by flow cytometry; assay type: functional
Rattus norvegicus [32] = assay: Immunosuppressive activity in Sprague-Dawley rat […] model assessed as percent T lymphocytes at 10 mg/kg, po administered once daily for 28 days by flow cytometry; assay type: functional
[33] = tested on: Human immunodeficiency virus 1; assay: Antiviral activity against HIV1 subtype B JR-CSF infected in human PBMC assessed as inhibition of viral replication by ELISA; assay type: functional; conditions: Human immunodeficiency virus 1, JRCSF ISOLATE
[34] = tested on: Human immunodeficiency virus 1; assay: Antiviral activity against HIV1 subtype C 92BR025 infected in human PBMC assessed as inhibition of viral replication by ELISA; assay type: functional, organism-based; conditions: Human immunodeficiency virus 1, subtype C 92BR025
Human betaherpesvirus 5 [35] = assay: Antiviral activity against Human cytomegalovirus AD169 infected in human embryonic lung cells assessed as reduction in viral yield; assay type: functional, organism-based; conditions: Human betaherpesvirus 5, AD169, lung

C/C=C/C[C@@H](C)[C@@H](O)[C@H]1C(=O)N[C@@H](CC)C(=O)N(C)[C@H](C)C(=O)N(CC)[C@@H](C(C)C)C(=O)N[C@@H](C(C)C)C(=O)N(C)[C@@H](CC(C)C)C(=O)N[C@@H](C)C(=O)N[C@H](C)C(=O)N(C)[C@@H](CC(C)C)C(=O)N(C)[C@@H](CC(C)C)C(=O)N(C)[C@@H](C(C)C)C(=O)N1C [ALISPORIVIR]
CC50 [1]: 9.9 µM
IC50 [2]: 0.063 µM
TC50 [3]: 1.2 µM
inhibition [4]: inactive
IC50 (Human alphaherpesvirus 1 [5]): > 25 µM
inhibition [6]: Active
IC50 (Human alphaherpesvirus 2 [7]): > 25 µM
Activity (Rattus norvegicus [8]): 53.4%
IC50 [9]: 0.058 µM
IC50 (Human alphaherpesvirus 1 [10]): > 25 µM
IC50 [11]: 0.015 µM
IC50 [12]: 5.65 µM
IC50 (Influenza A virus): > 9.9 µM
IC50 [13]: 5.66 µM
IC50 [14]: 0.058 µM
IC50 (Yellow fever virus): > 16.6 µM
Activity [15]: Active
CC50 [16]: 16.4 µM
IC50 [17]: 0.025 µM
TC50 [18]: 0.6 µM
Activity (Rattus norvegicus [19]): 16.1%
CC50 [20]: 8.2 µM
IC50 [21]: 0.01 µM
IC50 (Human respirovirus 3): > 25 µM
IC50 (Coxsackievirus): > 25 µM
IC50 (Human alphaherpesvirus 2 [22]): > 25 µM
IC50 [23]: 3.53 µM
IC50 (Human betaherpesvirus 5 [24]): 6.1 µM
IC50 [25]: 8.24 µM
IC50 [26]: 10.5 µM
IC50 [27]: 0.01 µM
CC50 [28]: 25 µM
IC50 (SARS-CoV): 7.7 µM
CC50 [29]: 6.5 µM
IC50 [30]: > 25 µM
Activity (Rattus norvegicus [31]): 50%
Activity (Rattus norvegicus [32]): 52.4%
IC50 [33]: 0.015 µM
IC50 [34]: 0.015 µM
IC50 (Human betaherpesvirus 5 [35]): 8.9 µM
